Assay results as given in PubChem BioAssay (NCI).
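In this assay, cells in 96-well plates receive the compound at five concentrations for 48 hours. Endpoints are linearly interpolated between the surrounding concentrations. GI50: concentration for 50% inhibition of growth. TGI: concentration producing complete growth inhibition.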

Key:
Assay in all cases: DTP human tumour cell line panel, 48 h
A498 renal = tested on: A498 renal
DU-145 prostate = tested on: DU-145 prostate
K-562 leukemia = tested on: K-562 leukemia
M14 melanoma = tested on: M14 melanoma
OVCAR-4 ovarian = tested on: OVCAR-4 ovarian
RPMI-8226 leukemia = tested on: RPMI-8226 leukemia
SNB-75 CNS = tested on: SNB-75 CNS
SR leukemia = tested on: SR leukemia
UO-31 renal = tested on: UO-31 renal
EKVX NSCLC = tested on: EKVX NSCLC

Cc1cccc2c(Nc3ccc(NS(C)(=O)=O)cc3)c3ccc([N+](=O)[O-])cc3nc12
GI50 (A498 renal): 703 nM | TGI (A498 renal): 3.81 µM | GI50 (DU-145 prostate): 253 nM | TGI (DU-145 prostate): 4.4 µM | GI50 (K-562 leukemia): 2040 nM | TGI (K-562 leukemia): 14 µM | GI50 (M14 melanoma): 808 nM | TGI (M14 melanoma): 3.4 µM | GI50 (OVCAR-4 ovarian): 1900 nM | TGI (OVCAR-4 ovarian): 6.38 µM | GI50 (RPMI-8226 leukemia): 1090 nM | TGI (RPMI-8226 leukemia): 7.56 µM | GI50 (SNB-75 CNS): 1120 nM | TGI (SNB-75 CNS): 5.93 µM | GI50 (SR leukemia): 59.8 nM | TGI (SR leukemia): 2.69 µM | GI50 (UO-31 renal): 1770 nM | TGI (UO-31 renal): 13 µM

N/C(=N\c1nc2ccccc2s1)NC(=NC1CCCCC1)NC1CCCCC1
GI50 (A498 renal): 1710 nM | TGI (A498 renal): 3.11 µM | GI50 (DU-145 prostate): 1780 nM | TGI (DU-145 prostate): 3.34 µM | GI50 (EKVX NSCLC): 1510 nM | TGI (EKVX NSCLC): 2.93 µM | GI50 (M14 melanoma): 1630 nM | TGI (M14 melanoma): 3.31 µM | GI50 (OVCAR-4 ovarian): 1630 nM | TGI (OVCAR-4 ovarian): 3.29 µM | GI50 (SNB-75 CNS): 1330 nM | TGI (SNB-75 CNS): 2.62 µM | GI50 (UO-31 renal): 1270 nM | TGI (UO-31 renal): 2.55 µM

COc1ccc(-c2onc(-c3c(C)cc(C)cc3C)c2C2=NCCN2)cc1
TGI (EKVX NSCLC): > 100 µM | TGI (K-562 leukemia): > 100 µM | TGI (M14 melanoma): 35.8 µM | TGI (OVCAR-4 ovarian): > 100 µM | TGI (RPMI-8226 leukemia): > 100 µM | TGI (SNB-75 CNS): > 100 µM | TGI (SR leukemia): > 100 µM | TGI (UO-31 renal): > 100 µM

COc1ccc(Oc2ccccc2NC(=O)CNC(=O)c2cccc3ccccc23)cc1
GI50 (A498 renal): 564 nM | TGI (A498 renal): 10.4 µM | GI50 (DU-145 prostate): 1020 nM | TGI (DU-145 prostate): > 25 µM | GI50 (EKVX NSCLC): 1370 nM | TGI (EKVX NSCLC): > 25 µM | GI50 (K-562 leukemia): 143 nM | TGI (K-562 leukemia): > 25 µM | GI50 (M14 melanoma): 545 nM | TGI (M14 melanoma): > 25 µM | GI50 (OVCAR-4 ovarian): 2260 nM | TGI (OVCAR-4 ovarian): > 25 µM | GI50 (RPMI-8226 leukemia): 1130 nM | TGI (RPMI-8226 leukemia): 8.45 µM | GI50 (SR leukemia): 166 nM | TGI (SR leukemia): > 25 µM | GI50 (UO-31 renal): 1490 nM | TGI (UO-31 renal): > 25 µM

COc1ccc2c(c1)C(=O)c1c-2n(CCCN)c(=O)c2cc([N+](=O)[O-])ccc12
GI50 (A498 renal): < 10 nM | TGI (A498 renal): < 0.01 µM | GI50 (DU-145 prostate): < 10 nM | TGI (DU-145 prostate): 0.0193 µM | GI50 (EKVX NSCLC): < 10 nM | TGI (EKVX NSCLC): 2.31 µM | GI50 (K-562 leukemia): < 10 nM | TGI (K-562 leukemia): 1.31 µM | GI50 (M14 melanoma): < 10 nM | TGI (M14 melanoma): < 0.01 µM | GI50 (RPMI-8226 leukemia): < 10 nM | TGI (RPMI-8226 leukemia): < 0.0222 µM | GI50 (SR leukemia): < 10 nM | TGI (SR leukemia): < 0.01 µM | GI50 (UO-31 renal): < 10 nM | TGI (UO-31 renal): 0.0172 µM

O=C(N/C(=C\c1cc(Cl)ccc1Cl)c1nc2ccc(Cl)cc2[nH]1)c1ccccc1
TGI (A498 renal): 41.9 µM | TGI (EKVX NSCLC): 50.6 µM | TGI (K-562 leukemia): 41.1 µM | TGI (M14 melanoma): 31.1 µM | TGI (OVCAR-4 ovarian): 68.6 µM | TGI (RPMI-8226 leukemia): 40.4 µM | TGI (SNB-75 CNS): 35.2 µM | TGI (SR leukemia): 25.5 µM | TGI (UO-31 renal): 24.4 µM

CC(=O)[CH-]C(=O)Nc1ccccc1.CC(=O)[CH-]C(=O)Nc1ccccc1.CC[O-].CC[O-].[Ti+4]
GI50 (A498 renal): > 100000 nM | TGI (A498 renal): > 100 µM | GI50 (EKVX NSCLC): > 100000 nM | TGI (EKVX NSCLC): > 100 µM | GI50 (K-562 leukemia): > 100000 nM | TGI (K-562 leukemia): > 100 µM | GI50 (M14 melanoma): > 100000 nM | TGI (M14 melanoma): > 100 µM | GI50 (OVCAR-4 ovarian): > 100000 nM | TGI (OVCAR-4 ovarian): > 100 µM | GI50 (SNB-75 CNS): 61200 nM | TGI (SNB-75 CNS): > 100 µM | GI50 (SR leukemia): > 100000 nM | TGI (SR leukemia): > 100 µM | GI50 (UO-31 renal): > 100000 nM | TGI (UO-31 renal): > 100 µM

Cc1ccc(NC(=O)CC2SC(N)=NC2=O)cc1C (centres undefined)
TGI (K-562 leukemia): > 100 µM | TGI (M14 melanoma): > 100 µM | TGI (OVCAR-4 ovarian): > 100 µM | TGI (RPMI-8226 leukemia): > 100 µM | TGI (SNB-75 CNS): > 100 µM | TGI (SR leukemia): > 100 µM | TGI (UO-31 renal): > 100 µM

C#C[C@H]1CCCCCC1O (some centres undefined)
TGI (A498 renal): > 100 µM | TGI (EKVX NSCLC): > 100 µM | TGI (K-562 leukemia): > 100 µM | TGI (M14 melanoma): > 100 µM | TGI (OVCAR-4 ovarian): > 100 µM | TGI (SNB-75 CNS): > 100 µM | TGI (SR leukemia): > 100 µM | TGI (UO-31 renal): > 100 µM

Cc1nc2c(sc(=S)n2-c2ccccc2)c2nc3ccccc3n12
TGI (EKVX NSCLC): > 100 µM | TGI (K-562 leukemia): > 100 µM | TGI (M14 melanoma): > 100 µM | TGI (OVCAR-4 ovarian): > 100 µM | TGI (RPMI-8226 leukemia): > 100 µM | TGI (SNB-75 CNS): > 100 µM | TGI (UO-31 renal): > 100 µM

Nc1ncnc2c1nnn2C1C=C(CO)C(O)C1O (centres undefined)
TGI (A498 renal): > 100 µM | TGI (EKVX NSCLC): > 100 µM | TGI (K-562 leukemia): > 100 µM | TGI (M14 melanoma): > 100 µM | TGI (OVCAR-4 ovarian): > 100 µM | TGI (RPMI-8226 leukemia): > 62.7 µM | TGI (SNB-75 CNS): > 96.1 µM | TGI (UO-31 renal): > 100 µM

COC/N=C(/N)NC#N
TGI (A498 renal): > 100 µM | TGI (EKVX NSCLC): > 100 µM | TGI (K-562 leukemia): > 100 µM | TGI (M14 melanoma): > 100 µM | TGI (OVCAR-4 ovarian): > 100 µM | TGI (RPMI-8226 leukemia): > 100 µM | TGI (SNB-75 CNS): > 100 µM | TGI (SR leukemia): 53.4 µM | TGI (UO-31 renal): > 100 µM

NC(=O)C12CC3CC(CC(Br)(C3)C1)C2
TGI (A498 renal): > 100 µM | TGI (EKVX NSCLC): > 100 µM | TGI (M14 melanoma): > 100 µM | TGI (OVCAR-4 ovarian): > 100 µM | TGI (RPMI-8226 leukemia): > 100 µM | TGI (SNB-75 CNS): > 100 µM | TGI (SR leukemia): > 100 µM | TGI (UO-31 renal): > 100 µM

Cc1cc(NC(=O)c2cnc(N3CCN(CCOCCOCCOCCOCCC(=O)N[C@H](C(=O)N4C[C@H](O)C[C@H]4C(=O)N[C@@H](C)c4ccc(-c5scnc5C)cc4)C(C)(C)C)CC3)cn2)c2ncccc2c1
GI50 (A498 renal): 5060 nM | TGI (A498 renal): 29 µM | GI50 (DU-145 prostate): 6160 nM | TGI (DU-145 prostate): > 100 µM | GI50 (EKVX NSCLC): 4900 nM | TGI (EKVX NSCLC): > 100 µM | GI50 (K-562 leukemia): 3100 nM | TGI (K-562 leukemia): > 100 µM | GI50 (M14 melanoma): 2190 nM | TGI (M14 melanoma): 4.94 µM | GI50 (OVCAR-4 ovarian): 4490 nM | TGI (OVCAR-4 ovarian): 25 µM | GI50 (SNB-75 CNS): 2100 nM | TGI (SNB-75 CNS): 15 µM | GI50 (UO-31 renal): 12700 nM | TGI (UO-31 renal): > 100 µM

COc1ccc(-c2ccc(/C=N/n3c(COc4ccccc4Cl)n[nH]c3=S)o2)c([N+](=O)[O-])c1
GI50 (A498 renal): 14400 nM | TGI (A498 renal): 40.6 µM | GI50 (K-562 leukemia): 34100 nM | TGI (K-562 leukemia): > 100 µM | GI50 (M14 melanoma): 26600 nM | TGI (M14 melanoma): 79.1 µM | GI50 (OVCAR-4 ovarian): 45400 nM | TGI (OVCAR-4 ovarian): > 100 µM | GI50 (RPMI-8226 leukemia): 24900 nM | TGI (RPMI-8226 leukemia): 92.9 µM | GI50 (SNB-75 CNS): > 100000 nM | TGI (SNB-75 CNS): > 100 µM | GI50 (SR leukemia): 34800 nM | TGI (SR leukemia): 76.7 µM | GI50 (UO-31 renal): 31700 nM | TGI (UO-31 renal): > 100 µM

CCN(C(=O)CN1CCN(c2cc3c(cc2F)c(=O)c(C(=O)O)cn3CC)CC1)c1nc(-c2ccccc2)cs1
GI50 (A498 renal): 244 nM | TGI (A498 renal): 0.917 µM | GI50 (DU-145 prostate): 453 nM | TGI (DU-145 prostate): > 100 µM | GI50 (EKVX NSCLC): 372 nM | TGI (EKVX NSCLC): > 100 µM | GI50 (K-562 leukemia): 337 nM | TGI (K-562 leukemia): > 100 µM | GI50 (M14 melanoma): 363 nM | TGI (M14 melanoma): > 100 µM | GI50 (OVCAR-4 ovarian): 347 nM | TGI (OVCAR-4 ovarian): > 100 µM | GI50 (RPMI-8226 leukemia): 344 nM | TGI (RPMI-8226 leukemia): > 100 µM | GI50 (SNB-75 CNS): 320 nM | TGI (SNB-75 CNS): > 100 µM | GI50 (UO-31 renal): 266 nM | TGI (UO-31 renal): > 100 µM

CCC[CH2][Sn]([CH2]CCC)([O]C(=O)/C=C/c1ccccc1F)[O]C(=O)/C=C/c1ccccc1F
GI50 (A498 renal): 1090 nM | TGI (A498 renal): 2.29 µM | GI50 (EKVX NSCLC): 1430 nM | TGI (EKVX NSCLC): 2.79 µM | GI50 (K-562 leukemia): 232 nM | TGI (K-562 leukemia): 1.4 µM | GI50 (M14 melanoma): 873 nM | TGI (M14 melanoma): 2.22 µM | GI50 (OVCAR-4 ovarian): 1450 nM | TGI (OVCAR-4 ovarian): 2.9 µM | GI50 (RPMI-8226 leukemia): 222 nM | TGI (RPMI-8226 leukemia): 1.2 µM | GI50 (SNB-75 CNS): 692 nM | TGI (SNB-75 CNS): 2.06 µM | GI50 (SR leukemia): 305 nM | TGI (SR leukemia): 2.1 µM | GI50 (UO-31 renal): 775 nM | TGI (UO-31 renal): 2.06 µM
